The source of these data is patent publication US20240262819A1, “NOVEL COMPOUNDS HAVING INHIBITORY ACTIVITY AGAINST GLUCOSYLCERAMIDE SYNTHASE OR PHARMACEUTICALLY ACCEPTABLE SALT THEREOF, PROCESSES FOR PREPARING THE SAME, AND PHARMACEUTICAL COMPOSITIONS COMPRISING THE SAME” (YUHAN CORPORATION, priority 2021, published 2024).

Data set [1] relates to GM1 production in Jurkat cells. Kind of data set: cells. In kind it is cell-based.
The nature of data set [2]: Evaluation of blood-brain barrier (BBB) permeability through oral administration. In kind it is in vivo, mice. Conditions: mouse, in vivo. Here is the method:
The blood-brain barrier (BBB) permeability was evaluated in mice, with respect to the compounds according to the present invention and the control (ibiglustat). Each compound of the present invention and the control were suspended in 0.5% methyl cellulose containing 0.2% Tween 80 and then orally administered to mice at a dose of 10 or 30 mg/10 ml/kg. After the whole blood was collected from the heart of each mouse at the time of 4 hours after the administration, it was placed in a lithium heparin tube and immediately centrifuged to obtain the plasma. After the exsanguination was carried out through abdominal vena cava incision, the forebrain was taken by dissection of the head. Both of the forebrain and the plasma were stored in a −80° C. freezer until the analysis of drug concentrations therein. For the analysis of drug concentrations therein, the forebrain was immersed in distilled water and then homogenized with a homogenizer to obtain a homogenate. Each plasma and homogenate was treated with acetonitrile to precipitate proteins, vortexed for 15 seconds, and then centrifuged (12700 rpm, 10 min, 4° C.). The obtained supernatant was diluted with an 80% aqueous solution of acetonitrile containing 0.1% formic acid and then analyzed with an LC-MS/MS instrument. LC-MS/MS analysis was carried out with a reversed-phase column, using distilled water containing 0.1% formic acid and acetonitrile as mobile phases. Each eluted material was detected through a mass spectrometer to calculate the drug concentrations thereof. The brain-plasma drug ratio (B/P ratio) was calculated from the drug concentrations in each tissue to evaluate the blood-brain barrier (BBB) permeability.

“And” between values parts separate entries of the source, which are not always exact repeats. Equal values may be shown once. Read-outs that look alike come from different tables or passages of the source.

On to `CCOc1ccc(-c2cc3c(cc2F)[C@H](NC(=O)O[C@@H]2CN4CCC2CC4)C(C)(C)C3)cc1` [Example 56, (S)-quinuclidin-3-yl((R)-5-(4-ethoxyphenyl)-6-fluoro-2,2-dimethyl-2,3-dihydro-1H-inden-1-yl)carbamate], for which the IC50 in data set [1] (Homo sapiens, Jurkat, 72 h) was 10.7 nM.

On to `Cc1ccc(-c2ccc3c(c2)CC(C)(C)[C@H]3NC(=O)O[C@@H]2CN3CCC2CC3)cc1Cl` [Example 45, (S)-quinuclidin-3-yl((R)-5-(3-chloro-4-methylphenyl)-2,2-dimethyl-2,3-dihydro-1H-inden-1-yl)carbamate], for which, in data set [1] (Homo sapiens, Jurkat, 72 h), 6 nM corresponded to half-maximal inhibition (IC50). For the same compound, the Kp at 4 h in data set [2] (mice, oral, dose 30 mg/kg, 4 hr, read-out: Mean brain-plasma drug ratio at 4 hr) is 9.09. The concentration at 4 h was 7820 ng/g in data set [2] (mice, oral, dose 30 mg/kg, 4 hr, read-out: Mean drug concentrations in brain tissue at 4 hr) and 858 ng/mL in data set [2] (mice, oral, dose 30 mg/kg, 4 hr, read-out: Mean drug concentrations in plasma at 4 hr).

In turn, `CC1(C)Cc2cc(-c3ccc(OCC4CC4)nc3)ccc2[C@@H]1NC(=O)O[C@@H]1CN2CCC1CC2` [Example 13, (S)-quinuclidin-3-yl((R)-5-(6-(cyclopropylmethoxy)pyridin-3-yl)-2,2-dimethyl-2,3-dihydro-1H-inden-1-yl)carbamate] came in with a half-maximal inhibitory concentration (IC50) in data set [1] (Homo sapiens, Jurkat, 72 h) of 4.15 nM.

For the compound `COc1cccc(-c2cc3c(cc2F)[C@H](NC(=O)O[C@@H]2CN4CCC2CC4)C(C)(C)C3)c1` [Example 75, (S)-quinuclidin-3-yl((R)-6-fluoro-5-(3-methoxyphenyl)-2,2-dimethyl-2,3-dihydro-1H-inden-1-yl)carbamate], the IC50 in data set [1] (Homo sapiens, Jurkat, 72 h) worked out at 14.8 nM.

On to `CC(C)c1cccc(-c2cc3c(cc2F)[C@H](NC(=O)O[C@@H]2CN4CCC2CC4)C(C)(C)C3)c1` [Example 73, (S)-quinuclidin-3-yl((R)-6-fluoro-5-(3-isopropylphenyl)-2,2-dimethyl-2,3-dihydro-1H-inden-1-yl)carbamate], for which, in data set [1] (Homo sapiens, Jurkat, 72 h), the IC50 stood at 10.8 nM.

On to `CCCOc1cccc(-c2cc3c(cc2F)[C@H](NC(=O)O[C@@H]2CN4CCC2CC4)C(C)(C)C3)c1` [Example 77, (S)-quinuclidin-3-yl((R)-6-fluoro-2,2-dimethyl-5-(3-propoxyphenyl)-2,3-dihydro-1H-inden-1-yl)carbamate], for which, in data set [1] (Homo sapiens, Jurkat, 72 h), 23.7 nM corresponded to half-maximal inhibition (IC50).

In turn, `CC(C)(C)c1ccc(-c2ccc3c(c2)CC(C)(C)[C@H]3NC(=O)O[C@@H]2CN3CCC2CC3)cc1` [Example 6, (S)-quinuclidin-3-yl((R)-5-(4-(tert-butyl)phenyl)-2,2-dimethyl-2,3-dihydro-1H-inden-1-yl)carbamate] had an IC50 in data set [1] (Homo sapiens, Jurkat, 72 h) of 9.97 nM.

Consider `CCOc1ccc(-c2ccc3c(c2)CC(C)(C)[C@H]3NC(=O)O[C@@H]2CN3CCC2CC3)cc1F` [Example 19, (S)-quinuclidin-3-yl((R)-5-(4-ethoxy-3-fluorophenyl)-2,2-dimethyl-2,3-dihydro-1H-inden-1-yl)carbamate], for which, in data set [1] (Homo sapiens, Jurkat, 72 h), inhibition was half-maximal at 56 nM (IC50).

As to `CCc1ccc(-c2cc3c(cc2F)[C@H](NC(=O)O[C@@H]2CN4CCC2CC4)C(C)(C)C3)cc1` [Example 58, (S)-quinuclidin-3-yl((R)-5-(4-ethylphenyl)-6-fluoro-2,2-dimethyl-2,3-dihydro-1H-inden-1-yl)carbamate], inhibition in data set [1] (Homo sapiens, Jurkat, 72 h) was half-maximal at 5.74 nM (IC50).

Consider `CCCCOc1ccc(-c2cc3c(cc2F)[C@H](NC(=O)O[C@@H]2CN4CCC2CC4)C(C)(C)C3)cc1` [Example 70, (S)-quinuclidin-3-yl((R)-5-(4-butoxyphenyl)-6-fluoro-2,2-dimethyl-2,3-dihydro-1H-inden-1-yl)carbamate], for which the IC50 in data set [1] (Homo sapiens, Jurkat, 72 h) was 0.6 nM.

In data set [1] (Homo sapiens, Jurkat, 72 h), `CC(C)COc1cccc(-c2cc3c(cc2F)[C@H](NC(=O)O[C@@H]2CN4CCC2CC4)C(C)(C)C3)c1` [Example 78, (S)-quinuclidin-3-yl((R)-6-fluoro-5-(3-isobutoxyphenyl)-2,2-dimethyl-2,3-dihydro-1H-inden-1-yl)carbamate] came in with a half-maximal inhibitory concentration (IC50) of 17.6 nM.

As to `CC(C)Oc1cccc(-c2cc3c(cc2F)[C@H](NC(=O)O[C@@H]2CN4CCC2CC4)C(C)(C)C3)c1` [Example 81, (S)-quinuclidin-3-yl((R)-6-fluoro-5-(3-isopropoxyphenyl)-2,2-dimethyl-2,3-dihydro-1H-inden-1-yl)carbamate], the IC50 in data set [1] (Homo sapiens, Jurkat, 72 h) was determined as 18.7 nM.

`CCCCOc1ccc(-c2ccc3c(c2)CC(C)(C)[C@H]3NC(=O)O[C@@H]2CN3CCC2CC3)cc1Cl` [Example 17, (S)-quinuclidin-3-yl((R)-5-(4-butoxy-3-chlorophenyl)-2,2-dimethyl-2,3-dihydro-1H-inden-1-yl)carbamate]: in data set [1] (Homo sapiens, Jurkat, 72 h), the IC50 came out at 20.6 nM.

In turn, `CCOc1c(C)cc(-c2cc3c(cc2F)[C@H](NC(=O)O[C@@H]2CN4CCC2CC4)C(C)(C)C3)cc1C` [Example 80, (S)-quinuclidin-3-yl((R)-5-(4-ethoxy-3,5-dimethylphenyl)-6-fluoro-2,2-dimethyl-2,3-dihydro-1H-inden-1-yl)carbamate] showed an IC50 in data set [1] (Homo sapiens, Jurkat, 72 h) of 51 nM.

`CC(C)c1cccc(-c2ccc3c(c2)CC(C)(C)[C@H]3NC(=O)O[C@@H]2CN3CCC2CC3)c1` [Example 2, (S)-quinuclidin-3-yl((R)-5-(3-isopropylphenyl)-2,2-dimethyl-2,3-dihydro-1H-inden-1-yl)carbamate] gave an IC50 in data set [1] (Homo sapiens, Jurkat, 72 h) of 3.75 nM.

`CCCc1ccc(-c2ccc3c(c2)CC(C)(C)[C@H]3NC(=O)O[C@@H]2CN3CCC2CC3)cc1` [Example 4, (S)-quinuclidin-3-yl((R)-2,2-dimethyl-5-(4-propylphenyl)-2,3-dihydro-1H-inden-1-yl)carbamate] yielded a concentration for half-maximal inhibition (IC50) in data set [1] (Homo sapiens, Jurkat, 72 h) of 3.74 nM.

In data set [1] (Homo sapiens, Jurkat, 72 h), `CC(C)COc1ccc(-c2ccc3c(c2)CC(C)(C)[C@H]3NC(=O)O[C@@H]2CN3CCC2CC3)cc1` [Example 8, (S)-quinuclidin-3-yl((R)-5-(4-isobutoxyphenyl)-2,2-dimethyl-2,3-dihydro-1H-inden-1-yl)carbamate] came in with an IC50 of 1.09 nM.

`CCc1cccc(-c2cc3c(cc2F)[C@H](NC(=O)O[C@@H]2CN4CCC2CC4)C(C)(C)C3)c1` [Example 71, (S)-quinuclidin-3-yl((R)-5-(3-ethylphenyl)-6-fluoro-2,2-dimethyl-2,3-dihydro-1H-inden-1-yl)carbamate]: in data set [1] (Homo sapiens, Jurkat, 72 h), inhibition was half-maximal at 12.7 nM (IC50).

As to `COc1ccc(-c2ccc3c(c2)CC(C)(C)[C@H]3NC(=O)O[C@@H]2CN3CCC2CC3)c(F)c1` [Example 12, (S)-quinuclidin-3-yl((R)-5-(2-fluoro-4-methoxyphenyl)-2,2-dimethyl-2,3-dihydro-1H-inden-1-yl) carbamate], in data set [1] (read-out: IC50), the IC50 came to 5.94 nM.

Compound `CCOc1ccc(-c2ccc3c(c2)CC(C)(C)[C@H]3NC(=O)O[C@@H]2CN3CCC2CC3)cc1` [Example 7, (S)-quinuclidin-3-yl((R)-5-(4-ethoxyphenyl)-2,2-dimethyl-2,3-dihydro-1H-inden-1-yl)carbamate] displayed an IC50 in data set [1] (Homo sapiens, Jurkat, 72 h) of 13.7 nM.

In the case of `CC(C)Cc1cccc(-c2cc3c(cc2F)[C@H](NC(=O)O[C@@H]2CN4CCC2CC4)C(C)(C)C3)c1` [Example 74, (S)-quinuclidin-3-yl((R)-6-fluoro-5-(3-isobutylphenyl)-2,2-dimethyl-2,3-dihydro-1H-inden-1-yl)carbamate], the IC50 in data set [1] (Homo sapiens, Jurkat, 72 h) amounted to 19.4 nM.

As for `CCc1cccc(-c2ccc3c(c2)CC(C)(C)[C@H]3NC(=O)O[C@@H]2CN3CCC2CC3)c1` [Example 1, (S)-quinuclidin-3-yl((R)-5-(3-ethylphenyl)-2,2-dimethyl-2,3-dihydro-1H-inden-1-yl)carbamate], 4.53 nM corresponded to half-maximal inhibition in data set [1] (Homo sapiens, Jurkat, 72 h) (IC50).

The compound `CCCCc1ccc(-c2ccc3c(c2)CC(C)(C)[C@H]3NC(=O)O[C@@H]2CN3CCC2CC3)cc1` [Example 3, (S)-quinuclidin-3-yl((R)-5-(4-butylphenyl)-2,2-dimethyl-2,3-dihydro-1H-inden-1-yl)carbamate] yielded an IC50 in data set [1] (Homo sapiens, Jurkat, 72 h) of 1.24 nM.

The compound `CCOc1cccc(-c2cc3c(cc2F)[C@H](NC(=O)O[C@@H]2CN4CCC2CC4)C(C)(C)C3)c1` [Example 76, (S)-quinuclidin-3-yl((R)-5-(3-ethoxyphenyl)-6-fluoro-2,2-dimethyl-2,3-dihydro-1H-inden-1-yl)carbamate] yielded an IC50 in data set [1] (Homo sapiens, Jurkat, 72 h) of 33.4 nM.

As to `CCCCOc1cccc(-c2cc3c(cc2F)[C@H](NC(=O)O[C@@H]2CN4CCC2CC4)C(C)(C)C3)c1` [Example 79, (S)-quinuclidin-3-yl((R)-5-(3-butoxyphenyl)-6-fluoro-2,2-dimethyl-2,3-dihydro-1H-inden-1-yl)carbamate], in data set [1] (Homo sapiens, Jurkat, 72 h), half-maximal inhibition (IC50) was put at 6 nM.

For the compound `CC(C)(NC(=O)O[C@@H]1CN2CCC1CC2)c1csc(-c2ccc(F)cc2)n1` [Control, Ibiglustat, reference compound], in data set [2] (po, 30 mg/kg), the Kp at 4 h was 0.501; the concentration at 4 h is 2640 ng/mL and 1320 ng/g.

With `CC(C)Cc1ccc(-c2ccc3c(c2)CC(C)(C)[C@H]3NC(=O)O[C@@H]2CN3CCC2CC3)cc1` [Example 5, (S)-quinuclidin-3-yl((R)-5-(4-isobutylphenyl)-2,2-dimethyl-2,3-dihydro-1H-inden-1-yl)carbamate], in data set [1] (Homo sapiens, Jurkat, 72 h), half-maximal inhibition (IC50) was put at 4.14 nM.

As for `CCCCc1ccc(-c2cc3c(cc2F)[C@H](NC(=O)O[C@@H]2CN4CCC2CC4)C(C)(C)C3)cc1` [Example 60, (S)-quinuclidin-3-yl((R)-5-(4-butylphenyl)-6-fluoro-2,2-dimethyl-2,3-dihydro-1H-inden-1-yl)carbamate], half-maximal inhibition in data set [1] (Homo sapiens, Jurkat, 72 h) (IC50) required 1 nM.

What is called IC50 is the concentration that inhibits the measured activity by half.
